Results on 7 molecules are retold here after patent publication US5352659A, “Endothelin analogs and uses thereof” (Takeda Chemical Industries, priority 1991, dated 1994).

Read-outs that look alike come from different tables or passages of the source. Bridge positions count the residues as written; N and C are the ends. Square brackets hold non-standard residues; d marks the D form. Peptide text beside a SMILES is read from it. tBuAla = CC(C)(C)C[C@H](N)C(=O)O; Mpa = O=C(O)CCS

The pA2 is the negative logarithm of the molar antagonist concentration that doubles the agonist concentration needed for the same response. The low end stands for a weaker antagonist, the high end for a more potent antagonist.

Assay [1] concerns porcine coronary smooth muscles. On the procedure:
(1) Assay of Constrictor Suppressing Activity on Porcine Coronary Smooth Muscles
(§1) Spiral strips 2 mm×15 mm prepared from the coronary right ramus circumflexus from which the adventitial connective tissues and the endothelial cells were removed were set to 4 ml organ baths. The tension of each strip was detected by a force displacement transducer UL-10GR (Minebea), and recorded by a polygraph (NEC Sanei). The organ baths were maintained at 37° C., and filled with a Krebs-Henseleit solution (composition: 118 mM NaCl, 4.7 mM KCl, 2.5 mM CaCl2, 1.2 mM KH2 PO4, 25.0 mM NaHCO3, 1.2 mM MgSO4, 10.0 mM glucose) gassed with 95% O2 and 5% CO2.
(§2) A tension of 1.25 to 1.5 g was applied to each of the strips, followed by equilibration for 1.5 hours. 60 mM KCl was repeatedly applied thereto at intervals of 30 minutes until the constriction response became constant. After additional equilibration for 1.5 hours, a sample for assay was given thereto. The constriction of the strips was normalized by the constriction response of the individual strips to 60 mM KCl and statistically processed.
pA2 is a negative logarithm value of a molar concentration of a competitive antagonist necessary for shifting in parallel a dose response curve for an active drug (for example, ET-1) alone to the high dose side by a factor of 2.

The test system of a further assay is porcine coronary artery. Description: Constrictor activity on porcine coronary smooth muscles. Conditions: for Maximum constriction (% 60 mM KCl): porcine coronary artery strips, normalized to 60 mM KCl response; for Constrictor activity (specific activity): relative to ET-1 = 100, porcine coronary artery. On the procedure: as §1, §2
(2) As to the antagonistic property of the peptides of the present invention to endothelin, the affinity for an endothelin receptor and the constrictor activity on porcine coronary smooth muscles (according to the method described in (1) described above) were assayed. The affinity for the receptor was assayed by the following method.

For another assay, the system named is endothelin receptor. Description: Assay of affinity for receptor (inhibition of 125I-ET-1 binding to porcine myocardial membrane fraction). To be noted: relative to ET-1 = 100. As to the method:
Assay of Affinity for Receptor
A membrane fraction prepared from the porcine heart was diluted to 0.15 mg/ml by using a buffer solution for assay, and 100 μl of the resulting suspension of the membrane fraction was poured into each assay tube to use for assay. To this suspension of the membrane fraction was added 2 μl of 5 nM ^125 I labeled endothelin-1 solution. Further, 3 μl of a test peptide solution was added thereto, followed by incubation at a temperature of 25° C. for 1 hour. Then, the resulting suspension was diluted with 900 μl of the buffer solution for assay cooled with ice, and thereafter separated into a supernatant and a precipitate by centrifugation at 12,000×g for 10 minutes. Cell membranes and an endothelin receptor embedded therein were contained in the precipitate, and radioactive iodine-labeled endothelin combined with the receptor was also recovered in the precipitate. Accordingly, the amount of radioactive iodine-labeled endothelin combined with the endothelin receptor was determined by measuring the amount of radioactive iodine contained in the precipitate with a gamma-ray counter.

As for `CC[C@H](C)[C@H](NC(=O)[C@H](CC(C)(C)C)NC(=O)[C@@H](NC(=O)[C@H](CC(C)C)NC(=O)[C@H](Cc1c[nH]cn1)NC(=O)[C@@H]1CSSC[C@H](N)C(=O)N[C@@H](CO)C(=O)N[C@H]2CSSC[C@H](NC(=O)[C@H](CCC(=O)O)NC(=O)[C@H](CCCCN)NC(=O)[C@H](CC(=O)O)NC(=O)[C@H](CCSC)NC(=O)[C@H](CC(C)C)NC(=O)[C@H](CO)NC(=O)[C@H](CO)NC2=O)C(=O)N[C@@H](C(C)C)C(=O)N[C@@H](Cc2ccc(O)cc2)C(=O)N[C@@H](Cc2ccccc2)C(=O)N1)[C@@H](C)O)C(=O)N[C@@H](Cc1c[nH]c2ccccc12)C(=O)O` [Example 4, [Thr^18, γLeu^19]-ET-1] (H-CSCSSLMDKECVYFCHLT[tBuAla]IW-OH; disulfide 1-15, 3-11), the pA2 in assay [1] (against cumulative endothelin-1, porcine coronary smooth muscles) is 7.4. Also, in the assay on porcine coronary artery, the “Maximum constriction (% 60 mM KCl)” value came to 0 % 60 mM KCl and the “Constrictor activity (specific activity)” value was less than 0.1. Besides, the “Receptor binding activity (specific activity)” value (from here on “Receptor binding activity”) with endothelin receptor turned out to be 23.
Regarding `CC[C@H](C)[C@H](NC(=O)[C@H](CC(C)C)NC(=O)[C@H](CO)NC(=O)[C@H](CC(C)C)NC(=O)[C@H](Cc1c[nH]cn1)NC(=O)[C@@H]1CSSC[C@H](N)C(=O)N[C@@H](CO)C(=O)N[C@H]2CSSC[C@H](NC(=O)[C@H](CCC(=O)O)NC(=O)[C@H](CCCCN)NC(=O)[C@H](CC(=O)O)NC(=O)[C@H](CCSC)NC(=O)[C@H](CC(C)C)NC(=O)[C@H](CO)NC(=O)[C@H](CO)NC2=O)C(=O)N[C@@H](C(C)C)C(=O)N[C@@H](Cc2ccc(O)cc2)C(=O)N[C@@H](Cc2ccccc2)C(=O)N1)C(=O)N[C@@H](Cc1c[nH]c2ccccc12)C(=O)O` [Example 6, [Ser^18, Leu^19]-ET-1] (H-CSCSSLMDKECVYFCHLSLIW-OH; disulfide 1-15, 3-11), in assay [1], the Relative potency was determined as 63 and the pA2 was 7.5. Besides, in the assay on porcine coronary artery, the “Maximum constriction (% 60 mM KCl)” value was found to be 1 % 60 mM KCl and the “Constrictor activity (specific activity)” value is reported as less than 0.1. Besides, the “Receptor binding activity” value in the assay on endothelin receptor is on record as 15.
The matching figures for `CC[C@H](C)[C@H](NC(=O)[C@H](CC(C)C)NC(=O)CNC(=O)[C@H](CC(C)C)NC(=O)[C@H](Cc1c[nH]cn1)NC(=O)[C@@H]1CSSC[C@H](N)C(=O)N[C@@H](CO)C(=O)N[C@H]2CSSC[C@H](NC(=O)[C@H](CCC(=O)O)NC(=O)[C@H](CCCCN)NC(=O)[C@H](CC(=O)O)NC(=O)[C@H](CCSC)NC(=O)[C@H](CC(C)C)NC(=O)[C@H](CO)NC(=O)[C@H](CO)NC2=O)C(=O)N[C@@H](C(C)C)C(=O)N[C@@H](Cc2ccc(O)cc2)C(=O)N[C@@H](Cc2ccccc2)C(=O)N1)C(=O)N[C@@H](Cc1c[nH]c2ccccc12)C(=O)O` [Example 8, [Gly^18, Leu^19]-ET-1] (H-CSCSSLMDKECVYFCHLGLIW-OH; disulfide 1-15, 3-11): 10, 6.7, 14 % 60 mM KCl, less than 0.1 and 9.5.
Consider `CC[C@H](C)[C@H](NC(=O)[C@H](CC(C)C)NC(=O)[C@@H](NC(=O)[C@H](CC(C)C)NC(=O)[C@H](Cc1c[nH]cn1)NC(=O)[C@@H]1CSSC[C@H](N)C(=O)N[C@@H](CO)C(=O)N[C@H]2CSSC[C@H](NC(=O)[C@H](CCC(=O)O)NC(=O)[C@H](C)NC(=O)[C@H](CC(=O)O)NC(=O)[C@H](CCSC)NC(=O)[C@H](CC(C)C)NC(=O)[C@H](CO)NC(=O)[C@H](CO)NC2=O)C(=O)N[C@@H](C(C)C)C(=O)N[C@@H](Cc2ccc(O)cc2)C(=O)N[C@@H](Cc2ccccc2)C(=O)N1)[C@@H](C)O)C(=O)N[C@@H](Cc1c[nH]c2ccccc12)C(=O)O` [Example 10, [Ala^9, Thr^18, Leu^19]-ET-1] (H-CSCSSLMDAECVYFCHLTLIW-OH; disulfide 1-15, 3-11), for which, in assay [1], the Relative potency is 1.6 and the pA2 turned out to be 5.9. In the assay on porcine coronary artery, the “Maximum constriction (% 60 mM KCl)” value is 4 % 60 mM KCl and the “Constrictor activity (specific activity)” value is listed as less than 0.1. Further, the “Receptor binding activity” value with endothelin receptor amounted to 16.
With `CC[C@H](C)[C@H](NC(=O)[C@H](CC(C)C)NC(=O)[C@@H](NC(=O)[C@H](CC(C)C)NC(=O)[C@H](Cc1c[nH]cn1)NC(=O)[C@@H]1CSSCCC(=O)N[C@@H](CO)C(=O)N[C@H]2CSSC[C@H](NC(=O)[C@H](CCC(=O)O)NC(=O)[C@H](CCCCN)NC(=O)[C@H](CC(=O)O)NC(=O)[C@H](CCSC)NC(=O)[C@H](CC(C)C)NC(=O)[C@H](CO)NC(=O)[C@H](CO)NC2=O)C(=O)N[C@@H](C(C)C)C(=O)N[C@@H](Cc2ccc(O)cc2)C(=O)N[C@@H](Cc2ccccc2)C(=O)N1)[C@@H](C)O)C(=O)N[C@@H](Cc1c[nH]c2ccccc12)C(=O)O` [Example 11, [Mpr^1, Thr^18, Leu^19]-ET-1] ([Mpa]SCSSLMDKECVYFCHLTLIW-OH; disulfide 1-15, 3-11), in assay [1], the Relative potency is 6 and the pA2 was found to be 6.5. In the assay on porcine coronary artery, the “Maximum constriction (% 60 mM KCl)” value turned out to be 1 % 60 mM KCl and the “Constrictor activity (specific activity)” value is listed as less than 0.1. Also, the “Receptor binding activity” value in the assay with endothelin receptor was determined as 16.
Turning to `CC[C@H](C)[C@H](NC(=O)[C@H](CC(C)C)NC(=O)[C@@H](NC(=O)[C@H](CC(C)C)NC(=O)[C@H](Cc1c[nH]cn1)NC(=O)[C@@H]1CSSC[C@H](N)C(=O)N[C@@H](C)C(=O)N[C@H]2CSSC[C@H](NC(=O)[C@H](CCC(=O)O)NC(=O)[C@H](CCCCN)NC(=O)[C@H](CC(=O)O)NC(=O)[C@H](CCSC)NC(=O)[C@H](CC(C)C)NC(=O)[C@H](CO)NC(=O)[C@H](CO)NC2=O)C(=O)N[C@@H](C(C)C)C(=O)N[C@@H](Cc2ccc(O)cc2)C(=O)N[C@@H](Cc2ccccc2)C(=O)N1)[C@@H](C)O)C(=O)N[C@@H](Cc1c[nH]c2ccccc12)C(=O)O` [Example 12, [Ala^2, Thr^18, Leu^19]-ET-1] (H-CACSSLMDKECVYFCHLTLIW-OH; disulfide 1-15, 3-11), the pA2 in assay [1] is listed as 6.7. In the assay with porcine coronary artery, the “Maximum constriction (% 60 mM KCl)” value turned out to be 5 % 60 mM KCl and the “Constrictor activity (specific activity)” value is recorded as less than 0.1. The “Receptor binding activity” value in the assay with endothelin receptor is recorded as 32.
In assay [1], `CC[C@H](C)[C@H](NC(=O)[C@H](CC(C)C)NC(=O)[C@@H](NC(=O)[C@H](CC(C)C)NC(=O)[C@H](Cc1c[nH]cn1)NC(=O)[C@@H]1CSSC[C@H](N)C(=O)N[C@@H](CO)C(=O)N[C@H]2CSSC[C@H](NC(=O)[C@H](CCC(=O)O)NC(=O)[C@H](CCCCN)NC(=O)[C@H](CC(=O)O)NC(=O)[C@H](CCSC)NC(=O)[C@H](CC(C)C)NC(=O)[C@H](CO)NC(=O)[C@H](C)NC2=O)C(=O)N[C@@H](C(C)C)C(=O)N[C@@H](Cc2ccc(O)cc2)C(=O)N[C@@H](Cc2ccccc2)C(=O)N1)[C@@H](C)O)C(=O)N[C@@H](Cc1c[nH]c2ccccc12)C(=O)O` [Example 13, [Ala^4, Thr^18, Leu^19]-ET-1] (H-CSCASLMDKECVYFCHLTLIW-OH; disulfide 1-15, 3-11) yielded a pA2 of 6.9. Moreover, in the assay with porcine coronary artery, the “Maximum constriction (% 60 mM KCl)” value is on record as 6 % 60 mM KCl and the “Constrictor activity (specific activity)” value is less than 0.1. In the assay with endothelin receptor, the “Receptor binding activity” value is 57.
